Laboratory results reported in patent US9303035B2, “Substituted pyrazino[1′,2′:1,2]pyrrolo[3,4-d]pyrimidines, pyrimido[4′,5′:3,4]pyrrolo[2,1-c][1,4]oxazines and pyrimido[4′,5′:3,4]pyrrolo[1,2-d][1,4]oxazepines for inhibiting the CFTR channel” (Novartis AG, priority 2012, dated 2016).

target: CFTR (WT-CFTR channels stably expressed in CHO cells) (Homo sapiens (Human), UniProt P13569); test: IonWorks Quattro CFTR inhibitor assay (whole-cell population patch clamp, forskolin-activated current); assay type: cell-based; settings: inward current (−100 mV); CHO cells stably expressing WT-CFTR; CFTR activated with 10 μM forskolin; 10 min compound incubation
Description: CFTR activity can be quantified by electrophysiology methods, using the whole-cell configuration of the patch clamp technique (Hamill O, Marty A, Neher E, Sakmann B and Sigworth F. ‘Improved patch-clamp techniques for high resolution current recording from cells and cell-free membrane patches.’ Pflugers Archive 1981 391: 85-100). This assay directly measures the currents associated with chloride flow through CFTR channels whilst either maintaining or adjusting the transmembrane voltage. This assay can use either single glass micropipettes or parallel planar arrays to measure CFTR activity from native or recombinant cell systems. Currents measured using parallel planar arrays can be quantified using an appropriately equipped instrument such as the IonWorks Quattro (Molecular Devices Corporation, Sunnyvale, Calif.). The Quattro system can measure CFTR currents from either a single cell per recording well (HT configuration) or alternatively from a population of 64 cells per well (Population Patch Clamp PPC) (Finkel A, Wittel A, Yang N, Handran S, Hughes J, Costantin J. ‘Population patch clamp improves data consistency and success rates in the measurement of ionic currents.’ J Biomol Screen. 2006 August; 11(5):488-96).
Chinese hamster ovary (CHO) cells stably expressing WT-CFTR channels were used for the IonWorks Quattro experiments. Cells were maintained at 37° C. in 5% v/v CO2 at 100% humidity in MEM alpha medium supplemented with 10% (v/v) FCS, 100 U/mL Penicillin/Streptomycin, and 100 μg/L methotrexate. For experiments, cells were grown in 225 cm^2 tissue culture flasks until almost confluent. Cells were removed from the flask using trypsin-EDTA and resuspended in extracellular recording solution for immediate experimentation.
Cells, at a density of 1.5-2 million per mL, were placed on the Quattro system, added to the planar patch plate and seals allowed to establish for 5-10 mins. After assessing seal resistances (typically >50 MΩ), whole-cell access was obtained by perforation with 100 μg/mL amphotericin B. Baseline currents were measured by a pre-compound scan obtained by application of a voltage ramp from −100 to +100 mV. CFTR was activated by the addition of 10 μM forskolin to each of the 384 wells of the patch plate. After 5 min incubation the post-compound 1 currents were measured, again by application of a voltage ramp from −100 to +100 mV. Test compounds, diluted from 10 mM stocks in DMSO in extracellular solution were then added to the patch plate and were incubated for a further 10 min. The post-compound 2 currents were measured by the application of the same voltage ramp from −100 to +100 mV. The inhibition of CFTR was determined from the difference in current between the forskolin addition (post-compound 1) and the test compound (post-compound 2). This was determined at both −100 mV and +100 mV which represents the inward and outward current respectively.
Extracellular solution (ECS): 145 mM NaCl, 4 mM CsCl, 5 mM D-glucose, 10 mM TES, 1 mM CaCl2, 1 mM MgCl2, pH 7.4 NaOH
Intracellular solution (ICS): 113 mM L-Aspartic acid, 113 mM CsOH, 27 mM CsCl, 1 mM NaCl, 1 mM MgCl2, 1 mM EGTA, 10 mM TES. pH 7.2 with CsOH. Filter sterilized before use.

Sequence of CFTR (WT-CFTR channels stably expressed in CHO cells) (P13569 whole entry): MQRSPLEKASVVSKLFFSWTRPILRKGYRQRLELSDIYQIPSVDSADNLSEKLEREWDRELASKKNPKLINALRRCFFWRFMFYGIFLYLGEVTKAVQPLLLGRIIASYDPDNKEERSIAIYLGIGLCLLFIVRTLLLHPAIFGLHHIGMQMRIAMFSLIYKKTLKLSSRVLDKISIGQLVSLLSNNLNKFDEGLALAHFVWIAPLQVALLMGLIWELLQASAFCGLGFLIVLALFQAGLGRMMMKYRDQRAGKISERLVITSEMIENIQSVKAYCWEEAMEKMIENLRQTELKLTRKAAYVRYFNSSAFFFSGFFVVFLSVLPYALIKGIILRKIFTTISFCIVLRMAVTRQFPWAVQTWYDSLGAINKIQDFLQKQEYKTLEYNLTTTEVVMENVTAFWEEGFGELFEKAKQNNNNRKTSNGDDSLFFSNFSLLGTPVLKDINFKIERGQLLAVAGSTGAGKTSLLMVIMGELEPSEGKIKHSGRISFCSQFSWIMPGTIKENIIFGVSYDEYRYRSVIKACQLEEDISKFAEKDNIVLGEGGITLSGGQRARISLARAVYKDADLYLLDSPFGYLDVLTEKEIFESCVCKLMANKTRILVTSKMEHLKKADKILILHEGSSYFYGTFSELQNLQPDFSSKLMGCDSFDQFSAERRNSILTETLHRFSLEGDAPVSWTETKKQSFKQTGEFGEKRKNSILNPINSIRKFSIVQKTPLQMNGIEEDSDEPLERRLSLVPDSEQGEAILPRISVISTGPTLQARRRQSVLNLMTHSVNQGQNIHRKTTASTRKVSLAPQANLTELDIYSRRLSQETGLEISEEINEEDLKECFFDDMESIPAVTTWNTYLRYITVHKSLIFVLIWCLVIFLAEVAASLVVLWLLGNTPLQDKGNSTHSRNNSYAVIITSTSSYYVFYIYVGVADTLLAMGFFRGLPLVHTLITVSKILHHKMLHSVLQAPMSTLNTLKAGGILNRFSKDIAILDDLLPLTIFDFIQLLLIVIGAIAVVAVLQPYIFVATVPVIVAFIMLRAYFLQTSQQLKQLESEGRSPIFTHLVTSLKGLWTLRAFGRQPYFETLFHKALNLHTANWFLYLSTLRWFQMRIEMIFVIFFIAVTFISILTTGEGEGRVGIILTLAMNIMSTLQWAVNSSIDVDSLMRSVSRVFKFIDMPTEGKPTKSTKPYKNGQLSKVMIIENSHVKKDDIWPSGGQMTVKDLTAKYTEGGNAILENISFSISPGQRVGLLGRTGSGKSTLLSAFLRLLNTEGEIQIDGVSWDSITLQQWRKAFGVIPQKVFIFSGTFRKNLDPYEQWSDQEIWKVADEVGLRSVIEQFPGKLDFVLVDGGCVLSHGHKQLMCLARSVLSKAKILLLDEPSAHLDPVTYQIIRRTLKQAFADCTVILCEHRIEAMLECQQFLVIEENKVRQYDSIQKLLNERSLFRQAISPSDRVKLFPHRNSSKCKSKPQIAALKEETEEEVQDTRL

Row | IC50 [µM] | Structure (SMILES)
1 | 1.58 | Cc1ccc([C@@H]2NCCn3c(-c4ccccc4)c4c(=O)n(C)c(=O)n(C)c4c32)o1 [Example 1.2, (R)-1,3-Dimethyl-10-(5-methylfuran-2-yl)-5-phenyl-7,8,9,10-tetrahydropyrazino[1′,2′:1,2]pyrrolo[3,4-d]pyrimidine-2,4(1H,3H)-dione]
2 | 7.62 | Cn1c(=O)c2c(-c3ccccc3)n3c(c2n(C)c1=O)C(C1CCCCC1)NCC3 (single isomer, unassigned) [Example 2.6, 10-Cyclohexyl-1,3-dimethyl-5-phenyl-7,8,9,10-tetrahydropyrazino[1′,2′:1,2]pyrrolo[3,4-d]pyrimidine-2,4(1H,3H)-dione]
3 | 0.07 | Cn1c(=O)c2c(-c3cccc(Cl)c3)n3c(c2n(C)c1=O)[C@H](c1nc(Cl)cs1)O[C@@H](CO)C3 (stereo in doubt) [Example 8.0a, 5-(3-Chlorophenyl)-10-(4-chlorothiazol-2-yl)-8-(hydroxymethyl)-1,3-dimethyl-7,8-dihydro-1H-pyrimido[4′,5′:3,4]pyrrolo[2,1-c][1,4]oxazine-2,4(3H,10H)-dione]
4 | 4.23 | Cc1ccc(C2OCCn3c(-c4ccccc4)c4c(=O)n(C)c(=O)n(C)c4c32)o1 (racemic) [Example 4.1, 1,3-Dimethyl-10-(5-methylfuran-2-yl)-5-phenyl-7,8-dihydro-1H-pyrimido[4′,5′:3,4]pyrrolo[2,1-c][1,4]oxazine-2,4(3H,10H)-dione]
5 | 4.64 | Cc1ccc(C2NCCn3c(-c4ccccc4)c4c(=O)n(C)c(=O)n(C)c4c32)o1 (racemic) [Example 1.1, 1,3-Dimethyl-10-(5-methylfuran-2-yl)-5-phenyl-7,8,9,10-tetrahydropyrazino[1′,2′:1,2]pyrrolo[3,4-d]pyrimidine-2,4(1H,3H)-dione]
6 | 8.26 | Cc1cc(C)cc(-c2c3c(=O)n(C)c(=O)n(C)c3c3n2CCNC3c2ccc(Cl)o2)c1 (stereo not drawn) [Example 3.6, 10-(5-Chlorofuran-2-yl)-5-(3,5-dimethylphenyl)-1,3-dimethyl-7,8,9,10-tetrahydropyrazino[1′,2′:1,2]pyrrolo[3,4-d]pyrimidine-2,4(1H,3H)-dione]
7 | 29.9 | Cn1c(=O)c2c(-c3ccccc3)n3c(c2n(C)c1=O)C(c1ccc(Cl)cc1)NCC3 (stereo not drawn) [Example 1.23, 10-(4-Chlorophenyl)-1,3-dimethyl-5-phenyl-7,8,9,10-tetrahydropyrazino[1′,2′:1,2]pyrrolo[3,4-d]pyrimidine-2,4(1H,3H)-dione]
8 | 1.9 | Cc1csc(-c2c3c(=O)n(C)c(=O)n(C)c3c3n2CCNC3c2ccc(Cl)o2)n1 (stereo not drawn) [Example 1.26, 10-(5-Chlorofuran-2-yl)-1,3-dimethyl-5-(4-methylthiazol-2-yl)-7,8,9,10-tetrahydropyrazino[1′,2′:1,2]pyrrolo[3,4-d]pyrimidine-2,4(1H,3H)-dione]
9 | 18.1 | Cn1c(=O)c2c(-c3ccccc3)n3c(c2n(C)c1=O)C(C1CC=CCC1)NCC3 (stereo not drawn) [Example 1.17, 10-(Cyclohex-3-en-1-yl)-1,3-dimethyl-5-phenyl-7,8,9,10-tetrahydropyrazino[1′,2′:1,2]pyrrolo[3,4-d]pyrimidine-2,4(1H,3H)-dione]
10 | > 30 | Cc1ccc([C@H]2NCCn3c(-c4ccccc4)c4c(=O)n(C)c(=O)n(C)c4c32)o1 (single isomer, unassigned) [Example 1.3]
11 | 0.64 | Cc1csc(C2NCCn3c(-c4cccc(Cl)c4)c4c(=O)n(C)c(=O)n(C)c4c32)n1 (stereo not drawn) [Example 3.2, 5-(3-Chlorophenyl)-1,3-dimethyl-10-(4-methylthiazol-2-yl)-7,8,9,10-tetrahydropyrazino[1′,2′:1,2]pyrrolo[3,4-d]pyrimidine-2,4(1H,3H)-dione]
12 | 3.16 | Cc1ccc(C2OCCn3c(-c4ccccc4)c4c(=O)n(C)c(=O)n(C)c4c32)o1 (single isomer, unassigned) [Example 4.3, 1,3-dimethyl-10-(5-methylfuran-2-yl)-5-phenyl-7,8-dihydro-1H-pyrimido[4′,5′:3,4]pyrrolo[2,1-c][1,4]oxazine-2,4(3H,10H)-dione]
13 | 11.5 | Cn1c(=O)c2c(-c3ccccc3)n3c(c2n(C)c1=O)C(c1cccc(F)c1F)NCC3 (stereo not drawn) [Example 1.14, 10-(2,3-Difluorophenyl)-1,3-dimethyl-5-phenyl-7,8,9,10-tetrahydropyrazino[1′,2′:1,2]pyrrolo[3,4-d]pyrimidine-2,4(1H,3H)-dione]
14 | 1.96 | Cn1c(=O)c2c(-c3cccc(C#N)c3)n3c(c2n(C)c1=O)[C@H](c1nc(Cl)cs1)CO[C@H](CO)C3 [Example 14, 3-(11-(4-chlorothiazol-2-yl)-8-(hydroxymethyl)-1,3-dimethyl-2,4-dioxo-1,2,3,4,7,8,10,11-octahydropyrimido[4′,5′:3,4]pyrrolo[1,2-d][1,4]oxazepin-5-yl)benzonitrile]
15 | 0.12 | Cn1c(=O)c2c(-c3cccc(Cl)c3)n3c(c2n(C)c1=O)[C@H](c1ccc(Cl)o1)O[C@@H](CO)C3 (stereo in doubt) [Example 8.1a, 10-(5-Chlorofuran-2-yl)-5-(3-chlorophenyl)-8-(hydroxymethyl)-1,3-dimethyl-7,8-dihydro-1H-pyrimido[4′,5′:3,4]pyrrolo[2,1-c][1,4]oxazine-2,4(3H,10H)-dione]
16 | 0.62 | Cn1c(=O)c2c(-c3ccccc3)n3c(c2n(C)c1=O)C(c1ccc(Cl)o1)OC(C)(C)C3 (stereo not drawn) [Example 12.5, 10-(5-Chlorofuran-2-yl)-1,3,8,8-tetramethyl-5-phenyl-7,8-dihydro-1H-pyrimido[4′,5′:3,4]pyrrolo[2,1-c][1,4]oxazine-2,4(3H,10H)-dione]
17 | 5.07 | Cc1cccc(-c2c3c(=O)n(C)c(=O)n(C)c3c3n2C[C@H](C)O[C@H]3c2ccc(Cl)o2)c1 (stereo in doubt) [Example 12.1, 10-(5-chlorofuran-2-yl)-1,3,8-trimethyl-5-(m-tolyl)-7,8-dihydro-1H-pyrimido[4′,5′:3,4]pyrrolo[2,1-c][1,4]oxazine-2,4(3H,10H)-dione]
18 | 8.06 | Cn1c(=O)c2c(-c3cccc(C#N)c3)n3c(c2n(C)c1=O)[C@@H](c1nc(Cl)cs1)O[C@H](CO)C3 (single isomer, unassigned) [Example 9b, 3-(10-(4-Chlorothiazol-2-yl)-8-(hydroxymethyl)-1,3-dimethyl-2,4-dioxo-2,3,4,7,8,10-hexahydro-1H-pyrimido[4′,5′:3,4]pyrrolo[2,1-c][1,4]oxazin-5-yl)benzonitrile]
19 | 0.09 | Cc1csc(-c2c3c(=O)n(C)c(=O)n(C)c3c3n2C[C@H](CO)O[C@H]3c2ccc(Cl)o2)n1 (stereo in doubt) [Example 7.0a, 10-(5-chlorofuran-2-yl)-8-(hydroxymethyl)-1,3-dimethyl-5-(4-methylthiazol-2-yl)-7,8-dihydro-1H-pyrimido[4′,5′:3,4]pyrrolo[2,1-c][1,4]oxazine-2,4(3H,10H)-dione]
20 | 0.24 | COC[C@@H]1Cn2c(-c3cccc(Cl)c3)c3c(=O)n(C)c(=O)n(C)c3c2[C@H](c2ccc(Cl)o2)O1 (stereo in doubt) [Example 12.2, 10-(5-chlorofuran-2-yl)-5-(3-chlorophenyl)-8-(methoxymethyl)-1,3-dimethyl-7,8-dihydro-1H-pyrimido[4′,5′:3,4]pyrrolo[2,1-c][1,4]oxazine-2,4(3H,10H)-dione]
21 | 3.24 | Cc1csc(C2OC[C@@H](C)n3c(-c4ccccc4)c4c(=O)n(C)c(=O)n(C)c4c32)n1 (stereo partly drawn) [Example 5.1, (7R)-1,3,7-trimethyl-10-(4-methylthiazol-2-yl)-5-phenyl-7,8-dihydro-1H-pyrimido[4′,5′:3,4]pyrrolo[2,1-c][1,4]oxazine-2,4(3H,10H)-dione]
